# Entries after “also recorded” stand apart in the source; their conditions may differ. Ends that are not written are not given here.
# Tests used:
# plasmid pTG11236 = test: Gel retardation assay (DNA binding activity)
# Procedure: 3 μg of the plasmid pTG11236 were incubated with increasing amounts of the respective peptide in a final volume of 30 μl with 0.9% NaCl. After 20 min of incubation at room temperature, 6 μl 5× loading buffer (glycerol and bromphenol blue in TAE buffer) were added and 10 μl of these solutions were analyzed on a 1% agarose gel in the presence of ethidium bromide.
# The ability of ppTG1 peptide to complex DNA was analyzed by gel retardation assays. […] After 20 minutes incubation at room temperature, loading buffer was added and 10 μl of the resulting solution were analyzed on a 1% agarose gel.
# ppTG1 derivatives as they are indicated in Materials and Methods, were tested for their capacity to bind plasmid DNA by gel retardation assays.
# [1] = tested on: WiDr, MDA-MB-435S, SW480 and LoVo; test: Transfection of human tumor cell lines; type: cell-based; details: peptide/plasmid pTG11236 complexes, luciferase day 1
# Procedure: WiDr (ATCC CCL-218), MDA-MB-435S (ATCC HTB-129), SW480 (ATCC CCL-228) and LoVo cell (CCL-229) were cultivated in the appropriate medium with 10% fetal calf serum, 1% gentamycine, 1% glutamine and 3 g/l glucose, in an incubator at 37° C. and 5% CO2.
# The transfection efficiencies with plasmid/ppTG1 complexes were tested in the human tumor cells WiDr, MDA-MB-435S, SW480 and LoVo (ATCC) in comparison to lipofectin, PEI and pcTG90/DOPE (1:1) [±] 5.
# CHO cells = test: Transfection in vitro, luciferase plasmid pTG11236; type: cell-based
# Procedure: A comparison of ppTG1 and KALA was carried out in HeLa and CHO cells. 5×10^4 cells were seeded on 24 well plates. The next day, cells were transfected with 500 ng and 50 ng of pTG11236, complexed with ppTG1 or KALA in 30μl 0.9% NaCl. The charge ratio±varied from 1, 2, 3, 4, 7 to 10. Cells were harvested 20 h after transfection and lysis was obtained in 100 μl Promega lysis buffer. Luciferase activity and total protein concentrations in 20 μl were determined.
# B6SJL mice, lungs [2] = test: In vivo gene transfer after intravenous injection, luciferase activity in the lungs
# Procedure: Mice were sacrificed at day 1.
# Lungs were tested for luciferase activity.
# HeLa cells [3] = test: Transfection in vitro, luciferase plasmid pTG11236; type: cell-based
# Procedure: Cells were plated on 24 well plates at a density of 4×10^4 (293-EBNA ) or 7×10^4 (HeLa, Renca) cells/well in DMEM supplemented with 10% FCS. The next day, the medium was replaced by 200 μl serum-free DMEM and plasmid (PTG11056 or pTG11236)/peptide complexes or plasmid/peptide/lipid complexes were prepared in 30 μl 0.9% NaCl or 5% glucose. After 20 min at room temperature these complexes were added to the cells which were then incubated for 2-3 h at 37° C. and 5% CO2 before 1 ml serum-containing DMEM was added. Approximately 20 hours later, cells were lysed by addition of 100 μl 1× Promega lysis buffer, 20 μl of the lysates were analysed for luciferase activity. Proteins were quantified with the bicinchonic acid (BCA) colorimetric method (Smith, Anal. Biochem. 150 (1985), 76-85). […]
# HeLa cells were seeded at a density of 6×10^4 cells on 24 well plates. The next day, cells were incubated with 200 μl serum-free medium, 30 μl of plasmid (50 ng)/peptide/lipid mixtures were added and incubated for 3 h at 37° C. in 5% CO2. 1 ml of DMEM+10% FCS was then added. The next day, the medium was removed and cells were washed with 500 μl of PBS and subsequently treated with 100 μl of Promega lysis buffer. Plates were stored at −80° C. until luciferase activity was measured of 20 μl of the cell lysate. The protein assay was performed using the Pierce BCA kit.
# JTS1 was dissolved to 1 mg/ml in 1 mM NaOH and mixed with DNA diluted in 5% glucose. ppTG1 was then added to this solution. The pcTG90/DOPE ppTG1 mixtures were prepared as described in Example 6. Transfection assays were performed on HeLa cells with 50 ng of plasmid as described in Example 6.
# The series of ppTG1 derivatives listed in Material and Methods were tested for their gene transfer efficiencies in Hela cells. 6×10^4 cells were transfected with 50 ng pTG11236 complexed with increasing amounts of peptide. Luciferase activity was analyzed day 1 after transfection. The results are shown in FIG. 10B (ppTG20, ppTG21), FIG. 10C (ppTG25, ppTG26, ppTG27), FIG. 10D (ppTG28 to ppTG33), FIG. 10E (PEG-ppTG1 and PEG-ppTG20), FIG. 10F (ppTG22 to ppTG24) and FIG. 10G (ppTG20-D).
# HeLa cells [4] = test: Transfection in the presence of Bafilomycin A; type: cell-based; details: 175 nM Bafilomycin A, 150 ng pTG11236
# Procedure: Transfection in the presence of Bafilomycin A: 6×10^4 HeLa cells were plated on 24 well plates. Cells were treated with 175 nM Bafilomycin A 30 min before and throughout the transfection (1 h incubation of cells with transfection mix in the absence of serum).
# Bafilomycin A is a specific inhibitor of the vacuolar proton pump. Treatment with Bafilomycin inhibits the acidification of late endosomes. HeLa cells were treated with Bafilomycin A (175 nM) 30 min before and throughout the transfection (1 h incubation with transfection complexes in the absence of serum). 6×10^4 cells were transfected with 150 ng pTG11236 using PEI or ppTG1. The luciferase assay was performed 1 day after transfection.
# B6SJL mice, lungs [5] = test: In vivo gene transfer after intravenous injection, luciferase activity in the lungs; details: 3 days after injection
sequence,measurement,setting,value
GLFKALLKLLKSLWKLLLKA,DNA complexed,"plasmid pTG11236; 1 μg peptide (0.35 nmol), 3 μg pTG11236",50%
same,amount of peptide giving retardation of plasmid,"plasmid pTG11236; 3 μg plasmid DNA pTG11236 (0,8 pmol)",4 µg
same,transfection of human tumor cell lines,[1],successfully transfected; also recorded: can efficiently transfect
same,more efficient in gene transfer than KALA,CHO cells; 50 ng pTG11236,68 fold
same,more efficient in gene transfer than KALA,CHO cells; 500 ng pTG11236,9 fold
same,more efficient than the complex comprising KALA,"CHO cells; CHO cells, in the best case",2500 fold
same,re-administration of peptide/plasmid complexes,"B6SJL mice, lungs [2]; at day 3 after the first injection",refractory
same,re-administration of peptide/plasmid complexes,"B6SJL mice, lungs [2]; at day 14 after the first injection",re-appearance of reporter gene expression
same,mice with gene expression in the lung,"B6SJL mice, lungs [2]; complexes of pTG11236 and peptide, intravenous, day 1",5 out of 5
same,gene transfer efficiency in the lung,"B6SJL mice, lungs [2]; pTG11236/peptide complexes intravenously injected, luciferase day 1",at least comparable to gene transfer with the optimized lipoplexes; also recorded: comparable to those obtained with the lipoplexes; also recorded: better than with JTS-1-K13
same,improvement of gene expression by presence of peptide in complexes comprising cationic lipids,"B6SJL mice, lungs [2]; pcTG90/DOPE 1:2 complexes, intravenous, lung, day 1",10 factor
same,improvement of the transfection efficiency of pcTG90/DOPE,"HeLa cells [3]; 50 ng plasmid, final charge ratio 3, 5 and 10, ppTG1 contributing 1/3, 1/5 and 1/10 of the positive charge",at least 1 log
same,improvement of the transfection efficiency of pcTG90/DOPE,"HeLa cells [3]; 50 ng plasmid, final charge ratio 5 and 10, ppTG1 contributing 2/3 and 7/10 of the positive charge",2 log
same,"transfection, peptide alone","HeLa cells [3]; 50 ng plasmid, final charge ratio of 3",better results than pcTG90/DOPE alone
same,comparison as transfection reagent,HeLa cells [3]; 0.5 μg or 0.05 μg pTG11236,better transfection reagent than JTS-1-K13
same,luciferase activities,"HeLa cells [3]; 0.5 μg or 0.05 μg pTG11236 with 1.17 μg or 0.117 μg peptide, charge ratio 1.8",comparable luciferase activities as observed for DNA formulated with Lipofectin
same,more efficient than the complex comprising KALA,"HeLa cells [3]; HeLa cells, in the best case",3000 fold
same,effect of Bafilomycin A on transfection efficiency,HeLa cells [4],did not influence
same,gene expression over time,"B6SJL mice, lungs [5]",background levels

# Source: patent publication US20040132188A1, “Use of non-complexing peptides for the preparation of a composition for transfection of a polynucleotide into a cell and compositions useful in gene therapy” (priority 2001, published 2004)
